System: rat spinal cord injured OAB model
Assay: Urodynamic study (cystometry) in rat spinal cord injured OAB model
Format: in vivo
Conditions: conscious female rats with spinal cord transection at Th10, intravenous injection 0.1 mg/kg
Description: Efficacy on Urodynamic Study in Rat Spinal Cord Injured OAB Model
In ether anesthetized female rats, spinal cord transection was performed at the level of Th10. About 1 month after the spinal cord transection, each rat was anesthetized with pentobarbital and a catheter filled with saline was implanted into the urinary bladder, ligated, secured on the back of the neck and closed. Seven days after the bladder catheter implantation, another catheter filled with heparin-containing saline was implanted into the […], and ligated, secured on the back of the neck and closed. The next day, cystometry was performed in the conscious rat under free moving. Saline was instilled into the urinary bladder at a rate of 12 mL/hr. A drug was injected through the […] catheter that was secured on the back of the neck. […] Intravenous injection of compound 1 (0.1 mg/kg) prolonged the micturition interval by about 20% (FIG. 1) and decreased the frequency of involuntary contraction in filling phase by 20% (FIG. 2) in the same model.

Compound: C[C@H](Cc1cc2c(c(C(N)=O)c1)N(CCCO)CC2)NCCOc1ccccc1OCC(F)(F)F [compound 1, (−)-1-(3-hydroxypropyl)-5-((2R)-2-{[2-({2-[(2,2,2-trifluoroethyl)oxy]phenyl}oxy)ethyl]amino}propyl)-2,3-dihydro-1H-indol-7-yl-carboxamide]
- prolongation of the micturition interval (versus value before drug administration (FIG. 1)): about 20%
- decrease of the frequency of involuntary contraction in filling phase (versus value before drug administration (FIG. 2)): 20%

Source: patent US20070167511A1, “Medicinal composition for prevention or treatment of overactive bladder accompanying nervous disorder” (KISSEI PHARMACEUTICAL CO,. LTD., priority 2004, published 2007)
